Experimental data as given in US4732902A, “Pyrroloisoquinolinyl-dimethyloxoalkyl alkonoates and their use as antipsychotic agents” (Hoffmann-La Roche Inc., priority 1986, dated 1988).
“And” between values parts separate entries of the source, which are not always exact repeats. Identical values can stand only once.

Key:
dopamine receptors = biological target: T1, dopamine receptors (Rattus norvegicus, UniProt P61169); test: 3H-spiroperidol binding test in rat striatal brain homogenates; details: 0.2 nanomolar 3H-spiroperidol, 20 min incubation, no esterases, read-out: 3H-Spiroperidol binding in vitro, IC50
T1 construct: rat striatal brain homogenates; from tissue; host or cells: rat striatum (brain homogenate)
Experimental: Spiroperidol binding test. In the absence of esterases which trigger the release of the compound of formula II from the compound of formula I, there is only weak activity in the 3H-spiroperiodol binding assay, an in vitro test which measures binding to dopamine receptors. In this test, rat striatal brain homogenates were incubated for 20 min. in the presence of 0.2 nanomolar ^3 H-spiroperidol and varying concentrations of test compounds. The incubations were terminated by rapid filtration through Whatman GF/B filters. followed by 2×5 mL washes with ice-cold assay buffer (50 mM tribase-HCl pH 7.7 which contains fixed concentrations of 0.1% ascorbic acid, 120 mM sodium chloride, 5 mM potassium chloride, 2 mM calcium chloride, and 1 mM magnesium chloride).

[1] = Esterase cleavage of prodrug esters by incubation with rat liver homogenate; assay type: in vitro ADME; details: liver 9000xg supernatant, rat liver 9,000×g supernatant, pH 7.4, 37° C., 0.5 μmole substrate, read-out: Formation of IIa (piquindone) as % of incubated test compound I in 1 hr.
Experimental: In this test, acetone solutions of the test compounds (0.5 μmole/50 μL) were added to an incubation medium consisting of 2.7 ml 0.1M potassium hydrogenphosphate (pH 7.4) and 0.3 ml rat liver 9,000×g supernatant. The media were then incubated for 1 hour at 37° C. Controls consisted of a sample containing the complete medium and substrate which was not incubated, a sample containing only phosphate buffer and substrate, and a sample containing the complete medium but lacking substrate.
The incubation media were fractionated with a Waters C-18 SEP-PAK. Prior to sample application, the SEP-PAK was washed with 10 ml of methanol and 20 ml of water. After sample application, the SEP-Pak was washed with 10 ml of water and 3 ml of methanol. The amount of the liberated compound of formula II was measured by high pressure liquid chromatography on a 30-cm Waters μ-Bondapak C-18 column, equilibrated with 70:30:1 methanol:water:ammonium hydroxide.

[2] = test system: male SPF rats (conditioned avoidance response); test: Pole climb avoidance test; assay type: in vivo; details: rat; for ED50 / ED (90-100): im, intramuscular in sesame oil; for ED50: at peak of action, read-out: Blockade of Avoidance Response (BAR), acute ED50; for ED (90-100): dose giving 90-100% block within 24 hours, read-out: Blockade of Avoidance Response (BAR), acute 100% BAR dose
Text: In vivo activity. Pole Climb Avoidance Test. In the pole climb test, antipsychotics characteristically disrupt an acquired discrete conditioned avoidance behavior in doses well below those which suppress the response to unconditioned stimuli (escape). The principle of the test procedure was described by Courvoisier S. et al. (Arch. Int. Pharmacodyn 92, 305, 1954), Cook, L. et al. (Ann. N.Y. Acad. Sci. 66, 740-752, 1957) and Pfeiffer, C. et al. (Ann, N.Y. Acad. Sci. 66, 753-764, 1957).
The animals were male SPF rats (stock Fuellinsdorf Albino, outbred) weighing 200-220 g at the end of a discrete conditioned avoidance training.
The test apparatus was a sound-attenuated plexiglass chamber (41×30×30 cm). The floor was a grid consisting of 27 stainless steel rods, to which a scrambled current of 0,8 mA could be delivered by means of a stimulator. The safety area was a vertical pole (4,3 cm diameter, 24 cm long) attached to the top of the chamber. The free lower end of the pole was 6 cm above the grid floor. A buzzer was mounted within the testing enclosure.
The rats were placed in the plexiglass chamber and trained to jump to the pole during a buzzer stimulus (conditioned stimulus CS) lasting 10 sec, in order to avoid an immediately following electrical footshock (unconditioned stimulus US) of 30 sec duration delivered to the grid floor in addition to the CS. If the rat climbed to the pole during the CS or CS plus US, the stimuli (buzzer, footshock) were immediately terminated.
The pole climb response occurring during the CS period is called an avoidance response or conditioned response (CAR or CR), that occurring during exposure to CS plus US escape response of unconditioned response (UER or UR). Following one training trial (exposure to one CS and US respectively) the rats were returned to their home cage. After 15-17 trials rats were jumping during the buzzer stimulation only and were ready for drug testing.
A group of 10 trained rats was used per dose (graded doses, geometric progression: factor 3.16). The test compounds were administered intramuscularly in a sesame oil solution containing 25 mg of compounds per ml of solution.
Dose-effect curves of block of conditioned response (BCR) were constructed by plotting the log dose against the effect (in percent BCR) at the peak of action. From these curves the ED50 for BCR were graphically determined. The potency of a drug for suppressing CR was expressed by the ED50 for BCR. For the evaluation of the long-term effect, a drug dose eliciting a non-supra-maximal 90-100% block of avoidance response within 24 hours was followed up at 24 hour intervals.

[3] = single i.m. 100% BAR dose in sesame oil

T1 sequence (P61169 whole entry): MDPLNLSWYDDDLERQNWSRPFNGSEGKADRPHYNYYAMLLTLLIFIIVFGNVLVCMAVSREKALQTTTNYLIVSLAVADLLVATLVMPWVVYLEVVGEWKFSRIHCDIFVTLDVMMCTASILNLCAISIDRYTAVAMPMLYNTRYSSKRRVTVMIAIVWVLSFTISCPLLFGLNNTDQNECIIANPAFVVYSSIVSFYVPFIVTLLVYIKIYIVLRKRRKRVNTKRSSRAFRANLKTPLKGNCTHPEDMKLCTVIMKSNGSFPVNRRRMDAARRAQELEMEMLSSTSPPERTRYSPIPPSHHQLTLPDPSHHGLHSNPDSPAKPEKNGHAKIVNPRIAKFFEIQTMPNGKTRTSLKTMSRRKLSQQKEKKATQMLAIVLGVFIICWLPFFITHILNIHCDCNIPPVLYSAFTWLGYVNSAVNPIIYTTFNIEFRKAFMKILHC

| IC50 (dopamine receptors) | metabolised at 1 h [1] | Structure (SMILES) | ED50 [2] | ED (90-100) [2] | Duration: % BAR, Day 1 [2, 3] | Duration: % BAR, Day 2 [2, 3] | Duration: % BAR, Day 3 ([2]; single i.m. 100% BAR dose in sesame oil, Day 3) | Duration: % BAR, Day 4 ([2]; single i.m. 100% BAR dose in sesame oil, Day 4) | Duration: % BAR, Day 5 ([2]; single i.m. 100% BAR dose in sesame oil, Day 5) | Duration: % BAR, Day 6-13 ([2]; single i.m. 100% BAR dose in sesame oil, Days 6-13) |
| --- | --- | --- | --- | --- | --- | --- | --- | --- | --- | --- |
| 250 nM | 88 ± 2% | CCc1c2c(n(C(=O)C(C)(C)CCOC(C)=O)c1C)C[C@H]1CCN(C)C[C@@H]1C2=O (relative stereo) [Ia] | 0.6 mg/kg | 3 mg/kg | 90% | 50% | – | – | – | – |
| 195 nM | 104 ± 3.3% | CCCCCCCC(=O)OCCC(C)(C)C(=O)n1c(C)c(CC)c2c1C[C@H]1CCN(C)C[C@@H]1C2=O (relative stereo) [Ib, 2,6-Dimethyl-1-[2,2-dimethyl-4-[(1-oxooctyl)oxy]-1-oxobutyl]-3-ethyl-1,4a,5,6,7,8,8a,9-octahydro-4a,8a-trans-4H-pyrrolo[2,3-g]isoquinolin-4-one] | – | – | – | – | – | – | – | – |

Further lines, the molecule ahead of its results:

| Structure (SMILES) | IC50 (dopamine receptors) | metabolised at 1 h [1] | ED50 [2] | ED (90-100) [2] | Duration: % BAR, Day 1 [2, 3] | Duration: % BAR, Day 2 [2, 3] | Duration: % BAR, Day 3 ([2]; single i.m. 100% BAR dose in sesame oil, Day 3) | Duration: % BAR, Day 4 ([2]; single i.m. 100% BAR dose in sesame oil, Day 4) | Duration: % BAR, Day 5 ([2]; single i.m. 100% BAR dose in sesame oil, Day 5) | Duration: % BAR, Day 6-13 ([2]; single i.m. 100% BAR dose in sesame oil, Days 6-13) |
| --- | --- | --- | --- | --- | --- | --- | --- | --- | --- | --- |
| CCCCCCCCCCCC(=O)OCCC(C)(C)C(=O)n1c(C)c(CC)c2c1C[C@H]1CCN(C)C[C@@H]1C2=O (relative stereo) [Id, 2,6-Dimethyl-1-[2,2-dimethyl-4-[(1-oxododecyl)oxy]-1-oxobutyl]-3-ethyl-1,4a,5,6,7,8,8a,9-octahydro-4a,8a-trans-4H-pyrrolo[2,3-g]isoquinolin-4-one] | 570 nM | 77.2 ± 0.8% | – | – | – | – | – | – | – | – |
| CCCCCCCCCCCCCCCCCCCC(=O)OCCC(C)(C)C(=O)n1c(C)c(CC)c2c1C[C@H]1CCN(C)C[C@@H]1C2=O (relative stereo) [Ig, 2,6-Dimethyl-1-[2,2-dimethyl-4-[(1-oxoeicosanoyl)oxy]-1-oxobutyl]-3-ethyl-1,4a,5,6,7,8,8a,9-octahydro-4a,8a-trans-4H-pyrrolo[2,3-g]isoquinolin-4-one] | 1000 nM | 11.7 ± 0.7% | 13.8 mg/kg | 30 mg/kg | 100% | 10% | – | – | – | – |
| CCCCCCCCCC(=O)OCCC(C)(C)C(=O)n1c(C)c(CC)c2c1C[C@H]1CCN(C)C[C@@H]1C2=O (relative stereo) [Ic, 2,6-Dimethyl-1-[2,2-dimethyl-4-[(1-oxodecyl)oxy]-1-oxo-butyl]-3-ethyl-1,4a,5,6,7,8,8a,9-octahydro-4a,8a-trans-4H-pyrrolo[2,3-g]isoquinolin-4-one] | 870 nM and 1000 nM | 102% | 3.6 mg/kg | 10 mg/kg | 100% | 100% | 100% | 90% | 80% | 50-60% |
| CCCCCCCCCCCCCCCC(=O)OCCC(C)(C)C(=O)n1c(C)c(CC)c2c1C[C@H]1CCN(C)C[C@@H]1C2=O (relative stereo) [Ie, 2,6-Dimethyl-1-[2,2-dimethyl-4-[(1-oxohexadecyl)oxy]-1-oxobutyl]-3-ethyl-1,4a,5,6,7,8,8a,9-octahydro-4a,8a-trans-4H-pyrrolo[2,3-g]isoquinolin-4-one] | 640 nM | 31 ± 1% | 17 mg/kg | 30 mg/kg | 100% | 10% | – | – | – | – |
| CCCCCCCCCCCCCCCCCC(=O)OCCC(C)(C)C(=O)n1c(C)c(CC)c2c1C[C@H]1CCN(C)C[C@@H]1C2=O (relative stereo) [If, 2,6-Dimethyl-1-[2,2-dimethyl-4-[(1-oxooctadecyl)oxy]-1-oxobutyl]-3-ethyl-1,4a,5,6,7,8,8a,9-octahydro-4a,8a-trans-4H-pyrrolo[2,3-g]isoquinolin-4-one] | 1000 nM | 12.1 ± 0.4% | 16.2 mg/kg | 30 mg/kg | 100% | 10% | – | – | – | – |
